Structures are written as SMILES. pIC50: −log10 of the molar value.

The target in assay [1] is NRF2-MAFG (Homo sapiens, UniProt O15525+Q16236). In words: Inhibition of NRF2/MAFG (unknown origin) heterodimerization using fluorescein-labeled ARE DNA duplex as substrate preincubated for 1 hr followed by substrate addition measured after 1 hr by FP assay. The format is protein-complex assay.
In assay [2] the test system is THP-1. The assay is described as follows: Cytotoxicity against human THP-1 cells incubated for 48 hrs by CCK8 assay. The conditions noted are these: THP-1, 48 h. It is filed as functional, cell-based. On the technique in general: Formazan colour is commonly taken as a measure of viable cells.
A short description of assay [3]: cells. The conditions noted are these: Homo sapiens, Bel-7402, 48 h.
Description: Cytotoxicity against human BEL-7402/ADM cells incubated for 48 hrs by MTT assay
The target of assay [4] is T1, Nuclear factor erythroid 2-related factor 2 (Homo sapiens, UniProt Q16236).
T1 sequence (Q16236 whole entry): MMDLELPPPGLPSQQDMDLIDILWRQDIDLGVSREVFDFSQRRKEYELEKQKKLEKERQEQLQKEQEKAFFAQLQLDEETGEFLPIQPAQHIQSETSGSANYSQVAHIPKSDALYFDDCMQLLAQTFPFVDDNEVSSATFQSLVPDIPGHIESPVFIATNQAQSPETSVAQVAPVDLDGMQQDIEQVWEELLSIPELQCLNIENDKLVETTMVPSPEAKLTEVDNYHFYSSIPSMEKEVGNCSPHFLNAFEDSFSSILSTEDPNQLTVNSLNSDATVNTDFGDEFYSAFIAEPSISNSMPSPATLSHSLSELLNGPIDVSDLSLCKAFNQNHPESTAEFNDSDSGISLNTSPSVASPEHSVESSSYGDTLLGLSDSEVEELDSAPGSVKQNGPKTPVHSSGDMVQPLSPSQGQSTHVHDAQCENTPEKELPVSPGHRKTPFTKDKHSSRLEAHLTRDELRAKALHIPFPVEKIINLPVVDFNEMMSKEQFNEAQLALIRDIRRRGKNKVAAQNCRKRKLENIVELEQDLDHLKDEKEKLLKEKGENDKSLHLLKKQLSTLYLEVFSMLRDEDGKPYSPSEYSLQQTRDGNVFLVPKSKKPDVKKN
In words: Inhibition of NRF2 in human KYSE-70 cells. The format is cell-based.

Assay [5] addresses T1, Nuclear factor erythroid 2-related factor 2. In words: Inhibition of NRF2 in human A549 cells. The format is cell-based.
Assay [6] relates to T98G. In words: Inhibition of cell viability in human T98G cells incubated for 24 hrs by MTT assay. It is filed as functional, cell-based.
Assay [7] relates to U-87 MG. In words: Inhibition of cell viability in human U-87 MG cells incubated for 24 hrs by MTT assay. It is filed as functional, cell-based, U-87MG ATCC.
The test system of assay [8] is SK-OV-3. The assay is described as follows: Inhibition of cell growth of human SK-OV-3 cells incubated for 24 to 96 hrs with re-current replacement of media containing compound for every 48 hrs by CCK8 assay. It is filed as functional, cell-based.
For assay [9], the system named is A2780. The assay is described as follows: Inhibition of cell growth of human A2780 cells incubated for 24 to 96 hrs with re-current replacement of media containing compound for every 48 hrs by CCK8 assay. It is filed as functional, cell-based.
The subject of assay [10] is Caov-4. The assay is described as follows: Inhibition of cell growth of human Caov-4 cells incubated for 24 to 96 hrs with re-current replacement of media containing compound for every 48 hrs by CCK8 assay. The format is functional, cell-based.
The nature of assay [11]: Cytotoxicity against human Leukemic stem cells incubated for 72 hrs by MTT assay. The format is functional, cell-based. The following applies: Leukemic stem cell.
The nature of assay [12]: Cytotoxicity against human MCF7-DOX cells incubated for 24 hrs by MTT assay. It is filed as functional, cell-based.

NRF2-MAFG, sequence (O15525 whole entry, one chain of several): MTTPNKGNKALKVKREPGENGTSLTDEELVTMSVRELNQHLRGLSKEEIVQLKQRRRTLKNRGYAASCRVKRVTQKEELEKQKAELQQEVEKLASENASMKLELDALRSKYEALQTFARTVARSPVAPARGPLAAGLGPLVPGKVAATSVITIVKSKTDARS

For `Cc1ccccc1C(=O)N1CCc2cc(-c3nc(NC(=O)Cc4ccc5c(c4)OCO5)sc3C)ccc21`, the negative-log IC50 (pIC50) (as a rule, −log10 of the IC50, conventionally taken in molar units) in assay [1] is 5.72.

Regarding `CC(C)(C)c1ccc(Cn2nc(-c3ccc(Cl)cc3)cc2C(=O)NO)cc1`, the pIC50 in [2] is 5.27.

In [3], `O=c1cc(-c2ccc(O)cc2)oc2cc(O)cc(O)c12` [APIGENIN] showed a pIC50 of about 4.30.

The molecule `O=c1cc(-c2ccccc2)oc2cc(O)cc(O)c12` [CHRYSIN] showed a negative logarithm of the IC50 (pIC50) in assay [3] of about 4.52.

As to `O=C(CC1NCCCC1O)Cn1cnc2cc(Br)c(Cl)cc2c1=O` (stereo not drawn) [HALOFUGINONE], the negative-log IC50 (pIC50) was 7.65 in [4] and 7.43 in assay [5].

Regarding `CC(C)c1cccc(=O)c(O)c1` [HINOKITIOL], the figures for the pIC50 in assay [6] and in [7] were 3.82 and 3.50, respectively.

For `N#CC1(c2ccc(NC(=O)c3cccnc3NCc3ccncc3)cc2)CCCC1` [RIVOCERANIB], the pIC50 in assay [8], in assay [9] and in [10] was about 4.70 throughout.

Turning to `CC(C)[C@]12O[C@H]1[C@@H]1O[C@]13[C@]1(O[C@H]1C[C@H]1C4=C(CC[C@@]13C)C(=O)OC4)[C@@H]2O` [TRIPTOLIDE], the pIC50 in assay [11] is 7.69.

Regarding `COc1c(O)cc(O)c2c(=O)cc(-c3ccccc3)oc12` [WOGONIN], the pIC50 in assay [12] is about 3.82.

(Values after ChEMBL document CHEMBL5614432, “NRF2 inhibitors: Recent progress, future design and therapeutic potential” (Eur J Med Chem, 2024).)
